Results taken from the supplement of paper PMC10307832.

Columns and labels:
Test in all cases: relative viability (nuclei count vs DMSO), 5 days (fraction); higher = more cells survive
Tosedostat + Lapatinib = compound: CC(C)C[C@@H](C(=O)N[C@H](C(=O)OC1CCCC1)c1ccccc1)[C@H](O)C(=O)NO [Tosedostat] + CS(=O)(=O)CCNCc1ccc(-c2ccc3ncnc(Nc4ccc(OCc5cccc(F)c5)c(Cl)c4)c3c2)o1 [Lapatinib] (partner 2 µM)
Method in brief: (§1)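 Five library-drug doses in √10 steps were combined with a fixed anchor-drug dose, or a single drug was given alone, by pin tool to lung cancer cell lines in 1536-well plates the day after seeding. Nuclei were stained and counted after 5 days. Relative viability is the nuclei count in treated wells over that in vehicle wells, taken as the median of duplicate plates.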

Tosedostat + Olaparib = compound: CC(C)C[C@@H](C(=O)N[C@H](C(=O)OC1CCCC1)c1ccccc1)[C@H](O)C(=O)NO [Tosedostat] + O=C(c1cc(Cc2n[nH]c(=O)c3ccccc23)ccc1F)N1CCN(C(=O)C2CC2)CC1 [Olaparib] (partner 8 µM)
Method in brief: as §1

[1] = compound: CC1=NN=C(O1)C2=NN=C(C=C2)N3CCC(CC3)OC4=C(C=CC(=C4)F)Cl + Cc1cc(Nc2cc(N3CCN(C)CC3)nc(Sc3ccc(NC(=O)C4CC4)cc3)n2)n[nH]1 [Tozasertib] (partner 0.1 µM)
Method in brief: as §1

[2] = compound: CC1=NN=C(O1)C2=NN=C(C=C2)N3CCC(CC3)OC4=C(C=CC(=C4)F)Cl + Nc1ncn([C@H]2C[C@H](O)[C@@H](CO)O2)c(=O)n1 [Decitabine] (partner 2 µM)
Method in brief: as §1

Cell Line	relative viability (Tosedostat + Lapatinib; first compound 0.02 µM)	relative viability (Tosedostat + Lapatinib; first compound 0.6325 µM)	relative viability (Tosedostat + Lapatinib; first compound 2 µM)	relative viability (Tosedostat + Olaparib; first compound 0.02 µM)	relative viability (Tosedostat + Olaparib; first compound 0.06325 µM)	relative viability (Tosedostat + Olaparib; first compound 0.2 µM)	relative viability (Tosedostat + Olaparib; first compound 0.6325 µM)	relative viability (Tosedostat + Olaparib; first compound 2 µM)	relative viability ([1]; first compound 0.253 µM)	relative viability ([1]; first compound 0.8 µM)	relative viability ([1]; first compound 2.53 µM)	relative viability ([1]; first compound 8 µM)	relative viability ([2]; first compound 0.253 µM)	relative viability ([2]; first compound 2.53 µM)	relative viability ([2]; first compound 8 µM)	relative viability (Tosedostat + Lapatinib; first compound 0.06325 µM)	relative viability (Tosedostat + Lapatinib; first compound 0.2 µM)	relative viability ([2]; first compound 0.8 µM)
LCLC-97TM1	0.951	0.641	0.766	0.335	0.436	0.309	0.236	0.251	0.182	0.137	0.172	0.207	0.205	0.186	0.18			
LK-2	0.958	0.995	1.2	0.615	0.798	0.583	0.592	0.437	0.171	0.176	0.176	0.134	0.401	0.325	0.315	0.971	0.892	0.279
LOU-NH91	0.8	0.868	0.778	0.948	0.901	0.893	0.79	0.768	0.585	0.587	0.664	0.677		0.773	0.759	0.88	0.875	0.773
LU99A	1.02	0.813	0.869	0.278	0.216	0.211	0.171	0.19	0.279	0.271	0.268	0.287	0.891	0.812	0.834	1.08	0.76	0.913
LXF-289	0.967	0.868	0.92	1.08	0.958	1.07	0.969	0.942	0.181	0.141	0.179	0.131	0.317	0.343	0.3	0.883	0.935	0.323
NCI-H23	1.23	1	0.628	0.323	0.238	0.294	0.252	0.191	0.312		0.275	0.46	0.268	0.295	0.282	1.06	0.958	0.328
NCI-H322M	0.665	0.55	0.446	0.746	0.713	0.67	0.532	0.635	0.488	0.482	0.422	0.436	0.812	0.682	0.643	0.577	0.542	0.709
NCI-H358	0.514	0.407	0.456	0.547	0.679	0.438	0.229	0.211	0.107	0.0958	0.116	0.0977	0.19	0.197	0.181	0.454	0.374	0.212
NCI-H460	1.13	0.921	0.999	0.424	0.438	0.392	0.326	0.388	0.0757	0.107	0.144	0.129	0.164	0.201	0.166	0.915	1.07	0.167
NCI-H520	0.815	0.923	1.03	0.402	0.362	0.293	0.301	0.304		0.38	0.398	0.443	0.603	0.478	0.362	0.984	0.96	0.495
NCI-H596	1.21	1.22	1.07	0.66	0.662	0.776	0.598	0.49	0.966	0.716	0.862	0.826	1.01	1.08	0.762	1.16	1	0.977
NCI-H647	1.17	0.926	0.969	0.799	0.446	0.506	0.376	0.51	0.166	0.105	0.126	0.0876	0.32	0.275	0.223	1.11	1.07	0.289
NCI-H650	1.19	0.775	0.489	0.368	0.362	0.381	0.271	0.219	0.724	0.698	0.676	0.682	0.334	0.336	0.285	0.996	0.608	0.331
NCI-H661	0.428	0.591	0.425	0.814	0.723	0.75	0.72	0.724	0.305	0.319	0.308	0.265	0.519	0.407	0.396	0.479	0.449	0.465
NCI-H727	1.11	0.657	0.575	0.677	0.492	0.679	0.51	0.451	0.65	0.804	0.53	0.668	0.916	0.905	0.862	0.589	0.631	0.873
NCI-H838	0.93	0.904	1.24	0.839	0.716	0.735	0.739	0.729	0.244	0.248	0.247	0.245	0.467	0.442	0.451	0.914	0.961	0.463
NCI-H1355	1.02	0.913	0.915	0.731	0.662	0.649	0.587	0.607	0.496	0.344	0.402	0.365	0.311	0.334	0.339	1.03	0.88	0.333
NCI-H1395	1.1	0.862	0.674	0.461	0.463	0.469	0.412	0.402	0.69	0.581	0.72	0.683	0.689	0.757	0.714	0.944	0.877	0.762

Cell Line	relative viability (Tosedostat + Lapatinib; first compound 0.02 µM)	relative viability (Tosedostat + Lapatinib; first compound 0.6325 µM)	relative viability (Tosedostat + Lapatinib; first compound 2 µM)	relative viability (Tosedostat + Olaparib; first compound 0.02 µM)	relative viability (Tosedostat + Olaparib; first compound 0.06325 µM)	relative viability (Tosedostat + Olaparib; first compound 0.2 µM)	relative viability (Tosedostat + Olaparib; first compound 0.6325 µM)	relative viability (Tosedostat + Olaparib; first compound 2 µM)	relative viability ([1]; first compound 0.253 µM)	relative viability ([1]; first compound 0.8 µM)	relative viability ([1]; first compound 2.53 µM)	relative viability ([1]; first compound 8 µM)	relative viability ([2]; first compound 0.253 µM)	relative viability ([2]; first compound 2.53 µM)	relative viability ([2]; first compound 8 µM)	relative viability (Tosedostat + Lapatinib; first compound 0.06325 µM)	relative viability (Tosedostat + Lapatinib; first compound 0.2 µM)	relative viability ([2]; first compound 0.8 µM)
NCI-H1437	0.749	0.727	0.661	0.641	0.615	0.659	0.596	0.604	0.256	0.204	0.228	0.175	0.376	0.399	0.368	0.809	0.744	0.383
NCI-H1650	0.983	0.997	0.918	0.768	0.732	0.754	0.515	0.594		0.357	0.361	0.235	0.338	0.387	0.392	0.828	0.863	0.402
NCI-H1651	0.883	0.816	0.697	0.201	0.203	0.168	0.156	0.141	0.58	0.66	0.567	0.571	0.486	0.451	0.391	0.81	0.77	0.46
NCI-H1666	0.841	0.735	0.618	0.726	0.732	0.72	0.638	0.777	0.43	0.496	0.458	0.388	0.561	0.69	0.534	0.853	0.669	0.674
NCI-H1734	1.23	1.01	0.763	0.651	0.505	0.577	0.431	0.536	0.262	0.287	0.216	0.247	0.519	0.463	0.503	1.11	0.997	0.482
NCI-H1755	1.1	1.1	1.13	0.924	0.851	0.827	0.857	0.776	0.425	0.45	0.467	0.405	0.524	0.605	0.503	1.08	1.09	0.54
NCI-H1793	0.579	0.82	0.618	0.884	0.879	0.763	0.698	0.669	0.368	0.302	0.219	0.195	0.468	0.343	0.452	0.73	0.874	0.482
NCI-H1915	1.08	0.953	0.956	0.281	0.234	0.244	0.203	0.236	0.265	0.222	0.222	0.192	0.255	0.242	0.217	0.938	0.947	0.223
NCI-H1944	0.94	0.81	0.904	0.429	0.427	0.414	0.355	0.371	0.22	0.216	0.213	0.229	0.306	0.321	0.309	0.836	0.854	0.288
NCI-H1975	0.835	0.703	0.751	0.909	0.8	0.824	0.63	0.659		0.595	0.48	0.261	0.258	0.358	0.278	0.966	0.86	0.28
NCI-H1993	0.904	0.87	0.734	1.13	1.04	0.943	0.736	0.769	0.558	0.603	0.635	0.571	0.554	0.484	0.647	0.997	0.857	0.551
NCI-H2009	1.25	0.78	0.663	0.702	0.592	0.661	0.603	0.544	0.372	0.39	0.376	0.353	0.322	0.311	0.268	0.956	1.03	0.304
NCI-H2023	0.94	0.457	0.753	0.509	0.424	0.332	0.348	0.372	0.301	0.216	0.205	0.147	0.191	0.186	0.176	0.953	0.795	0.185
NCI-H2085	0.568	0.743	0.836		0.86	0.784	0.784	0.782	0.454	0.614	0.538	0.515	0.479	0.446	0.406	0.825	0.827	0.477
NCI-H2087	1.08	0.907	0.844	0.698	0.562	0.558	0.339	0.36	0.194	0.157	0.156	0.114	0.238	0.268	0.271	1.1	1.1	0.265
NCI-H2126	0.705	0.76	0.674	0.897	0.979	0.843	0.769	0.757	0.765	0.786	0.763	0.715	0.542	0.488	0.52	0.754	0.83	0.549
NCI-H2170	0.25	0.289	0.276	0.579	0.513	0.686	0.574	0.613	0.306	0.416	0.392	0.331	0.366	0.357	0.321	0.258	0.273	0.323
NCI-H2347	1.12	0.892	0.888	0.694	0.618	0.539	0.58	0.484		0.447	0.579	0.497	0.544	0.568	0.471	1.02	1.03	0.593
